Reference: US11708344B2, “Flavone derivatives for the treatment and prophylaxis of hepatitis B virus disease” (Hoffmann-La Roche Inc., priority 2018, dated 2023)

Each compound was assayed on HBeAg (surrogate marker for cccDNA) in HepDES19 cells (assay: Engineered HepDES19 primary screen assay (HBeAg ELISA)). Settings: HepDES19 cells, 5 days compound incubation, HBeAg ELISA; read-out: IC50 (HBeAg level, HepDES19 primary screen assay).
Assay type: cell-based, HBV
Excerpt: The assay was employed to screen for novel cccDNA inhibitors. HepDES19 is a cccDNA-producing cell line. In this cell line, HBeAg in the cell culture supernatant as surrogate marker, as HBeAg production depends on cccDNA level and activity. HepDES19 is an engineered cell line which contains a 1.1 unit length HBV genome, and pgRNA transcription from the transgene is controlled by Tetracycline (Tet). In the absence of Tet, pgRNA transcription will be induced, but HBV e antigen (HBeAg) could not be produced from this pgRNA due to very short leader sequence before the HBeAg start codon and the start codon is disrupted. Only after cccDNA is formed, the missing leader sequence and start codon mutation would be restored from the 3′-terminal redundancy of pgRNA, and then HBeAg could be synthesized. Therefore, HBeAg could be used as a surrogate marker for cccDNA (Zhou, T. et al., Antiviral Res. (2006), 72(2), 116-124; Guo, H. et al., J. Virol. (2007), 81(22), 12472-12484).
HepDES19 cells were seeded at 2×10^6 cells per T150 flask and cultured with the culture medium (Dulbecco's Modified Eagle Medium: Nutrient Mixture F-12 [DMEM-F12, Gibco Cat. 11320-82], 10% Fetal Bovine Serum [FBS, Clontech Cat. 631101], 0.1 mM Non-Essential Amino Acids Solution [NEAA, Gibco Cat. 11140-050], 50 μg/mL Penicillin-Streptomycin [PS, Invitrogen Cat. 15140-163], 500 μg/mL Geneticin [G418, Invitrogen Cat. 10131-027]) containing 3 μg/mL Tet (Sigma, Cat. 87128) for 5 days. Cells were then seeded at 4×10^6 cells per T150 in the same culture medium as described above in the absence of Tet for 8 days. Cells were then harvested and frozen at density of 2×10^6 cells per mL. For compound testing, the frozen cells were thawed and seeded into 96-well plates at a density of 6×10^4 cells per well. At 24 hours after seeding, half log serial dilutions of compounds made with Dimethyl sulfoxide (DMSO, Sigma, Cat. D2650) were further diluted with the same culture medium as described above before they were added to the cells to reach desired final compound concentrations and 1% DMSO concentration. Plates were then incubated at 37° C. for another 5 days before measurement of HBeAg level and cell viability. […] HBeAg level were measured with enzyme-linked immunosorbent assay (ELISA) kit (Shanghai Kehua Diagnostic Medical Products Co., Ltd). Cell viability was assessed using Cell Counting Kit-8 (DonJindo, Cat. CK04-20). IC50 values were derived from the dose-response curve using 4 parameter logistic curve fit method.
The compounds of the present invention were tested for their capacity to inhibit extracellular HBeAg level as described herein.
For `O=c1cc(-c2ccc(Br)cc2OCCO[C@H]2C[C@H](C(=O)O)C2)oc2c(Cl)ccc(C(F)(F)F)c12` [Example C049-B], the IC50 was 103 nM.

Same assay, conditions: Hepatitis B virus, HepDES19, 120 h, read-out: IC50 (HBeAg level, HepDES19 primary screen assay), HepDES19 cells, 5 days compound incubation, HBeAg ELISA
`O=C(O)C1CC(OCCOc2cc(Cl)ccc2-c2cc(=O)c3cccc(Cl)c3o2)C1` (stereo not shown) [Example C004, 3-[2-[5-chloro-2-(8-chloro-4-oxo-chromen-2-yl)phenoxy]ethoxy]cyclobutanecarboxylic acid] was tested, and the IC50 was 1320 nM. In the case of `Cc1ccc2c(=O)cc(-c3ccccc3OCCO[C@H]3C[C@@H](C(=O)O)C3)oc2c1Cl` [Example C029-A, Cis-3-[2-[2-(8-chloro-7-methyl-4-oxo-chromen-2-yl)phenoxy]ethoxy]cyclobutanecarboxylic acid], the IC50 is reported as 3360 nM. `Cc1ccc2c(=O)cc(-c3ccccc3OCCO[C@H]3C[C@H](C(=O)O)C3)oc2c1Cl` [Example C029-B, Trans-3-[2-[2-(8-chloro-7-methyl-4-oxo-chromen-2-yl)phenoxy]ethoxy]cyclobutanecarboxylic acid] was tested, and the IC50 was 1320 nM. Compound `O=c1cc(-c2ccc(Br)cc2OCCO[C@H]2C[C@@H](C(=O)O)C2)oc2c(Cl)c(F)ccc12` [Example C030-A, Cis-3-[2-[5-bromo-2-(8-chloro-7-fluoro-4-oxo-chromen-2-yl)phenoxy]ethoxy]cyclobutanecarboxylic acid] has an IC50 of 1370 nM. `O=c1cc(-c2ccc(Br)cc2OCCO[C@H]2C[C@H](C(=O)O)C2)oc2c(Cl)c(F)ccc12` [Example C030-B, Trans-3-[2-[5-bromo-2-(8-chloro-7-fluoro-4-oxo-chromen-2-yl)phenoxy]ethoxy]cyclobutanecarboxylic acid] showed an IC50 of 12800 nM. Compound `COc1cc(OCCO[C@H]2C[C@H](C(=O)O)C2)c(-c2cc(=O)c3cccc(Cl)c3o2)cc1Br` [Example C040-B, Trans-3-[2-[4-bromo-2-(8-chloro-4-oxo-chromen-2-yl)-5-methoxy-phenoxy]ethoxy]cyclobutanecarboxylic acid] has an IC50 of 17100 nM. Compound `COc1cc(OCCO[C@H]2C[C@H](C(=O)O)C2)c(-c2cc(=O)c3cccc(Cl)c3o2)cc1C` [Example C041-B, Trans-3-[2-[2-(8-chloro-4-oxo-chromen-2-yl)-5-methoxy-4-methyl-phenoxy]ethoxy]cyclobutanecarboxylic acid] has an IC50 of 9640 nM. `O=c1cc(-c2ccc(Br)cc2OCCO[C@H]2C[C@@H](C(=O)O)C2)oc2c(Cl)c(C(F)(F)F)ccc12` [Example C048-A, Cis-3-[2-[5-bromo-2-[8-chloro-4-oxo-7-(trifluoromethyl)chromen-2-yl]phenoxy]ethoxy]cyclobutanecarboxylic acid] gave an IC50 of 5120 nM. With `O=c1cc(-c2cc(Br)ccc2OCCO[C@H]2C[C@H](C(=O)O)C2)oc2c(Cl)cc(F)cc12` [Example C053-B, Trans-3-[2-[4-bromo-2-(8-chloro-6-fluoro-4-oxo-chromen-2-yl)phenoxy]ethoxy]cyclobutanecarboxylic acid] the IC50 was 5590 nM. For `O=c1cc(-c2ccc(Br)cc2OCCCO[C@H]2C[C@H](C(=O)O)C2)oc2c(Cl)cccc12` [Example C056-B, Trans-3-[3-[5-bromo-2-(8-chloro-4-oxo-chromen-2-yl)phenoxy]propoxy]cyclobutanecarboxylic acid], the IC50 was 2180 nM. Work on `O=c1cc(-c2ccccc2OCCO[C@H]2C[C@@H](C(=O)O)C2)oc2c(Cl)c(C3CC3)ccc12` [Example C058-A, Cis-3-[2-[2-(8-chloro-7-cyclopropyl-4-oxo-chromen-2-yl)phenoxy]ethoxy]cyclobutanecarboxylic acid] yielded an IC50 of 5100 nM. Compound `O=C(O)C1CC(OCCOc2cnccc2-c2cc(=O)c3cccc(Cl)c3o2)C1` (stereo not shown) [Example C061, 3-[2-[[4-(8-chloro-4-oxo-chromen-2-yl)-3-pyridyl]oxy]ethoxy]cyclobutanecarboxylic acid] has an IC50 of 3350 nM. Work on `COC(=O)C1CC(OCCOc2cc(N3CCOC3=O)ccc2-c2cc(=O)c3cccc(Cl)c3o2)C1` (stereo not shown) [Example C062a, methyl 3-[2-[2-(8-chloro-4-oxo-chromen-2-yl)-5-(2-oxooxazolidin-3-yl)phenoxy]ethoxy]cyclobutanecarboxylate] yielded an IC50 of 2450 nM. `O=C1CCCN1c1ccc(-c2cc(=O)c3cccc(Cl)c3o2)c(OCCO[C@H]2C[C@H](C(=O)O)C2)c1` [Example C063-B, Trans-3-[2-[2-(8-chloro-4-oxo-chromen-2-yl)-5-(2-oxopyrrolidin-1-yl)phenoxy]ethoxy]cyclobutanecarboxylic acid] showed an IC50 of 14900 nM. Work on `CSc1ccc(-c2cc(=O)c3cccc(Cl)c3o2)c(OCCO[C@H]2C[C@@H](C(=O)O)C2)c1` [Example C064-A, Cis-3-[2-[2-(8-chloro-4-oxo-chromen-2-yl)-5-methylsulfanyl-phenoxy]ethoxy]cyclobutanecarboxylic acid] yielded an IC50 of 1940 nM. In the case of `CSc1ccc(-c2cc(=O)c3cccc(Cl)c3o2)c(OCCO[C@H]2C[C@H](C(=O)O)C2)c1` [Example C064-B, trans-3-[2-[2-(8-chloro-4-oxo-chromen-2-yl)-5-methylsulfanyl-phenoxy]ethoxy]cyclobutanecarboxylic acid], the IC50 is reported as 2930 nM. `COC(=O)[C@H]1C[C@H](OCCOc2cc(S(C)(=O)=O)ccc2-c2cc(=O)c3cccc(Cl)c3o2)C1` [Example C065-B, Trans-methyl 3-[2-[2-(8-chloro-4-oxo-chromen-2-yl)-5-methylsulfonyl-phenoxy]ethoxy]cyclobutanecarboxylate] showed an IC50 of 12200 nM. `O=c1cc(-c2ccc(-c3nccs3)cc2OCCO[C@H]2C[C@@H](C(=O)O)C2)oc2c(Cl)cccc12` [Example C066-A, Cis-3-[2-[2-(8-chloro-4-oxo-chromen-2-yl)-5-thiazol-2-yl-phenoxy]ethoxy]cyclobutanecarboxylic acid] gave an IC50 of 1020 nM. `O=c1cc(-c2ccc(-c3nccs3)cc2OCCO[C@H]2C[C@H](C(=O)O)C2)oc2c(Cl)cccc12` [Example C066-B, Trans-3-[2-[2-(8-chloro-4-oxo-chromen-2-yl)-5-thiazol-2-yl-phenoxy]ethoxy]cyclobutanecarboxylic acid] gave an IC50 of 1020 nM. For `O=c1cc(-c2ccc(C3CC3)cc2OCCO[C@H]2C[C@@H](C(=O)O)C2)oc2c(Cl)cccc12` [Example C069-A, Cis-3-[2-[2-(8-chloro-4-oxo-chromen-2-yl)-5-cyclopropyl-phenoxy]ethoxy]cyclobutanecarboxylic acid], the IC50 was 5090 nM. For `O=c1cc(-c2ccc(C3CC3)cc2OCCO[C@H]2C[C@H](C(=O)O)C2)oc2c(Cl)cccc12` [Example C069-B, Trans-3-[2-[2-(8-chloro-4-oxo-chromen-2-yl)-5-cyclopropyl-phenoxy]ethoxy]cyclobutanecarboxylic acid], the IC50 was 1290 nM. For `O=c1cc(-c2cc(OC(F)(F)F)c(O)cc2OCCO[C@H]2C[C@@H](C(=O)O)C2)oc2c(Cl)cccc12` [Example C090, Cis-3-[2-[2-(8-chloro-4-oxo-chromen-2-yl)-5-hydroxy-4-(trifluoromethoxy)phenoxy]ethoxy]cyclobutanecarboxylic acid], the IC50 was 6570 nM. With `O=C1Cc2cc(OCCO[C@H]3C[C@@H](C(=O)O)C3)c(-c3cc(=O)c4cccc(Cl)c4o3)cc2N1` [Example C091, Cis-3-[2-[6-(8-chloro-4-oxo-chromen-2-yl)-2-oxo-indolin-5-yl]oxyethoxy]cyclobutanecarboxylic acid] the IC50 was 418 nM. Work on `CCOc1ccc(-c2cc(=O)c3ccc(C(F)(F)F)c(Cl)c3o2)c(OCCOC2CC(C(=O)O)C2)c1` (stereo not shown) [Example C097, 3-[2-[2-[8-chloro-4-oxo-7-(trifluoromethyl)chromen-2-yl]-5-ethoxy-phenoxy]ethoxy]cyclobutanecarboxylic acid] yielded an IC50 of 1310 nM. `O=C(O)C1CCC(OCCOc2cc(Br)ccc2-c2cc(=O)c3cccc(Cl)c3o2)C1` (stereo not shown) [Example C106, 3-[2-[5-bromo-2-(8-chloro-4-oxo-chromen-2-yl)phenoxy]ethoxy]cyclopentanecarboxylic acid] showed an IC50 of 2100 nM. `O=C(O)c1ccc(OCCOc2cc(Br)ccc2-c2cc(=O)c3cccc(Cl)c3o2)cc1` [Example C107, 4-[2-[5-bromo-2-(8-chloro-4-oxo-chromen-2-yl)phenoxy]ethoxy]benzoic acid] was tested, and the IC50 was 991 nM. In the case of `O=C(O)c1cccc(OCCOc2cc(Br)ccc2-c2cc(=O)c3cccc(Cl)c3o2)c1` [Example C108, 3-[2-[5-bromo-2-(8-chloro-4-oxo-chromen-2-yl)phenoxy]ethoxy]benzoic acid], the IC50 is reported as 1250 nM.
